Here are results for three compounds from ChEMBL document CHEMBL3997761 (Medchemcomm, 2016).

The subject of data set [1] is CCRF S-180. Nature of the data set: Antitumor activity against mouse S180 cells implanted in ICR mouse assessed as decrease in tumor weight at 2 umol/kg, ip administered daily for 10 days and measured 24 hrs post last dose. It is filed as functional, organism-based.
Data set [2] deals with Mus musculus. As to the kind of experiment: Antiinflammatory activity in xylene induced ICR mouse ear edema model assessed as decrease in serum IL2 level at 1 umol/kg, po pretreated for 30 mins followed by xylene administration measured after 2 hrs by ELISA. In kind it is functional, organism-based.
For another data set, the system named is SH-SY5Y. Nature of the data set: Antiproliferative activity against human SH-SY5Y cells after 48 hrs by MTT assay. It is filed as functional, cell-based. (In general: Formazan colour is commonly taken as a measure of viable cells.)
Data set [3] has as its system K562. Nature of the data set: Antiproliferative activity against human K562 cells after 48 hrs by MTT assay. It is filed as functional, cell-based. As to conditions: K562, 48 h.
For data set [4], the system named is K562. Nature of the data set: Induction of apoptosis in human K562 cells assessed as early apoptotic cells at 10 uM after 24 hrs by Annexin V-FITC/propidium iodide staining based flow cytometry (reference value: 3.2%). It is filed as functional. (Flow cytometry measures light scatter and fluorescence of single cells or particles in a stream.)
For data set [5], the system named is CCRF S-180. As to the kind of experiment: Antitumor activity against mouse S180 cells implanted in ICR mouse assessed as decrease in tumor weight administered intraperitoneally daily for 10 days and measured after 24 hrs last dose. It is filed as functional.
Data set [6] is described as follows: Induction of nanoparticle formation in ultrapure water assessed as Farady-Tyndall effect at 1 uM.
Data set [7] can be described thus: Induction of nanoparticle solid formation assessed as nanoparticle size at 1 uM by scanning electron microscopic method.
Data set [8] is described as follows: Induction of nanoparticle formation in ultrapure water assessed as nanoparticle size at 0.1 uM by transmission electron microscopic method.
For data set [9], the system named is Mus musculus. As to the kind of experiment: Antiinflammatory activity in ICR mouse assessed as inhibition of xylene-induced ear edema at 1 umol/kg, po pretreated for 30 mins followed by xylene administration measured after 2 hrs relative to control. In kind it is functional, organism-based.
Data set [10] concerns K562. As to the kind of experiment: Induction of apoptosis in human K562 cells assessed as early apoptotic cells at 10 uM after 12 hrs by Annexin V-FITC/propidium iodide staining based flow cytometry (reference value: 5.1%). In kind it is functional.
The subject of another data set is HL-60. Nature of the data set: Antiproliferative activity against human HL60 cells after 48 hrs by MTT assay. In kind it is functional, cell-based. The settings on record: HL-60, 48 h.
In the next data set the test system is HCT-8. As to the kind of experiment: Antiproliferative activity against human HCT8 cells after 48 hrs by MTT assay. In kind it is functional, cell-based. As to conditions: HCT-8, 48 h.
The species named for data set [11] is Bos taurus. As to the kind of experiment: Binding affinity to calf thymus DNA by CD spectrum analysis.
Data set [12] relates to Mus musculus. As to the kind of experiment: Antiinflammatory activity in xylene induced ICR mouse ear edema model assessed as decrease in serum TNFalpha level at 1 umol/kg, po pretreated for 30 mins followed by xylene administration measured after 2 hrs by ELISA. It is filed as functional, organism-based. Background: ELISA stands for enzyme-linked immunosorbent assay.
In data set [13] the test system is K562. As to the kind of experiment: Induction of apoptosis in human K562 cells assessed as late apoptotic cells at 10 uM after 12 hrs by Annexin V-FITC/propidium iodide staining based flow cytometry (reference value: 1.7%). In kind it is functional.
Data set [14] is described as follows: Drug uptake in nucleus of human HeLa cells at 40 uM by fluorescence microscopy. It is filed as ADME, cell-based. The settings on record: TDE = time-dependent effect.
Data set [15] can be described thus: Induction of nanoparticle solid formation by scanning electron microscopic method.
A short description of data set [16]: Induction of nanoparticle formation in ultrapure water by transmission electron microscopic method.
In data set [17] the test system is K562. Nature of the data set: Induction of apoptosis in human K562 cells at 10 uM by Annexin V-FITC/propidium iodide staining based flow cytometry. In kind it is functional, cell-based. As to conditions: TDE = time-dependent effect.
Data set [18] relates to CCRF S-180. Nature of the data set: Antitumor activity against mouse S180 cells implanted in ICR mouse assessed as decrease in tumor size at 0.01 to 1 umol/kg, ip administered daily for 10 days and measured 24 hrs post last dose. In kind it is functional, organism-based.
Data set [19] is described as follows: Induction of nanoparticle solid formation assessed as nanoparticle size at 10 uM by scanning electron microscopic method.
The test system of data set [20] is CCRF S-180. As to the kind of experiment: Potency index, ratio of compound effect to doxorubicin effect for antitumor activity against mouse S180 cells implanted in ICR mouse assessed as decrease in tumor weight. It is filed as functional.
The nature of data set [21]: Induction of nanoparticle solid formation assessed as nanoparticle size at 0.1 uM by scanning electron microscopic method.
Data set [22] has as its system Plasma. Nature of the data set: Induction of nanoparticle formation in rat plasma assessed as nanoparticle size at 10 uM by atomic force microscopy. It is filed as cell-free.
The species named for data set [23] is Bos taurus. As to the kind of experiment: Binding affinity to calf thymus DNA assessed as fluorescence quenching by measuring bathochromic shift by spectrofluorometric method.
Data set [24] in a line: Induction of nanoparticle formation in ultrapure water assessed as zeta potential at 1 uM under 650 nanometer laser beam irradiation.
A short description of data set [25]: Drug uptake in nucleus of human SH-SY5Y cells at 40 uM by fluorescence microscopy. In kind it is ADME. The settings on record: TDE = time-dependent effect.
The test system of data set [26] is Mus musculus. As to the kind of experiment: Downregulation of TNFalpha levels in ip dose ICR mouse serum implanted with mouse S180 cells by ELISA. In kind it is functional, organism-based.
Data set [27] relates to Plasma. As to the kind of experiment: Induction of nanoparticle formation in rat plasma assessed as nanoparticle size at 1 uM by atomic force microscopy. It is filed as cell-free.
For data set [28], the system named is K562. Nature of the data set: Induction of apoptosis in human K562 cells assessed as live cells at 10 uM after 12 hrs by Annexin V-FITC/propidium iodide staining based flow cytometry (reference value: 91.6%). In kind it is functional.
In data set [29] the test system is K562. As to the kind of experiment: Induction of apoptosis in human K562 cells assessed as necrotic cells at 10 uM after 12 hrs by Annexin V-FITC/propidium iodide staining based flow cytometry (reference value: 0.6%). In kind it is functional.
Data set [30] relates to K562. Nature of the data set: Induction of apoptosis in human K562 cells assessed as late apoptotic cells at 10 uM after 24 hrs by Annexin V-FITC/propidium iodide staining based flow cytometry (reference value: 1.9%). It is filed as functional.
In data set [31] the test system is Mus musculus. Nature of the data set: Potency index, ratio of compound effect to aspirin effect for antiinflammatory activity in ICR mouse assessed as inhibition of xylene-induced ear edema. In kind it is functional.
The test system of data set [32] is K562. As to the kind of experiment: Induction of apoptosis in human K562 cells assessed as necrotic cells at 10 uM after 24 hrs by Annexin V-FITC/propidium iodide staining based flow cytometry (reference value: 0.6%). In kind it is functional.
Another data set concerns HT-29. Nature of the data set: Antiproliferative activity against human HT-29 cells after 48 hrs by MTT assay. In kind it is functional, cell-based. The settings on record: HT-29, 48 h.
Data set [33] can be described thus: Induction of nanoparticle formation in ultrapure water assessed as nanoparticle size at 10 uM by transmission electron microscopic method.
Data set [34] is described as follows: Induction of nanoparticle formation in ultrapure water assessed as Farady-Tyndall effect at 1 uM under 650 nanometer laser beam irradiation.
In a further data set the test system is A549. Nature of the data set: Antiproliferative activity against human A549 cells after 48 hrs by MTT assay. It is filed as functional, cell-based. As to conditions: A549, 48 h.
In data set [35] the test system is K562. As to the kind of experiment: Induction of apoptosis in human K562 cells assessed as live cells at 10 uM after 24 hrs by Annexin V-FITC/propidium iodide staining based flow cytometry (reference value: 94.3%). In kind it is functional.
A short description of data set [36]: Induction of nanoparticle formation in ultrapure water assessed as nanoparticle size at 1 uM under 650 nanometer laser beam irradiation.
The nature of data set [37]: Drug uptake in nucleus of human HT-29 cells at 40 uM by fluorescence microscopy. In kind it is ADME. As to conditions: TDE = time-dependent effect.
The subject of another data set is HeLa. Nature of the data set: Antiproliferative activity against human HeLa cells after 48 hrs by MTT assay. It is filed as functional, cell-based.
Data set [38] relates to Mus musculus. As to the kind of experiment: Downregulation of P-selectin expression in ip dosed ICR mouse serum implanted with mouse S180 cells by ELISA. In kind it is functional, organism-based.
Data set [39] is described as follows: Induction of nanoparticle formation in ultrapure water assessed as nanoparticle size at 1 uM by transmission electron microscopic method.
The test system of data set [40] is Plasma. Nature of the data set: Induction of nanoparticle formation in rat plasma by atomic force microscopy. It is filed as cell-free.
The species entered for data set [41] is Bos taurus. As to the kind of experiment: Binding affinity to calf thymus DNA by UV spectrum analysis.
In data set [42] the test system is Plasma. As to the kind of experiment: Induction of nanoparticle formation in rat plasma assessed as nanoparticle size at 0.1 uM by atomic force microscopy. It is filed as cell-free.
For data set [43], the system named is Mus musculus. Nature of the data set: Antiinflammatory activity in ICR mouse assessed as inhibition of xylene-induced ear edema at 16.7 umol/kg, po pretreated for 30 mins followed by xylene administration measured after 2 hrs relative to control. In kind it is functional, organism-based.

The structures appear in SMILES notation. Activity calls are given as the source filed them. No cut-off for these calls is given here.

For the compound `COc1cccc2c1C(=O)c1c(O)c3c(c(O)c1C2=O)C[C@@](O)(C(=O)CO)C[C@@H]3O[C@H]1C[C@H](N)[C@H](O)[C@H](C)O1`, the result in the data set on CCRF S-180 [1] was Active.

With `N=C(NCCC[C@H](NC(=O)c1cc2c(cn1)[nH]c1ccccc12)C(=O)OCc1ccccc1)N[N+](=O)[O-]`, the result (with Mus musculus [2]; with Mus musculus [12]; with CCRF S-180 [18]; in [34]) was Active. Besides, the IC50 with SH-SY5Y, in the data set with K562 [3], in the data set with HL-60, in the data set with HCT-8, with HT-29 and with A549 was 15.3 to 74.1 µM in each case. In addition, in the data set on HeLa, the IC50 lay within 15.3 to 74.1 µM. Moreover, the Activity in the data set with K562 [4] is 60.7%; in the data set with CCRF S-180 [5], “Dose-dependent effect”; in data set [7], 33.3 to 100 nm; in data set [8], 8 to 72.7 nm; with K562 [10], 14.5%; in the data set listed under Bos taurus [11], “Dose-dependent effect”. Besides, the Activity was 9% in the data set with K562 [13]; “Dose-dependent effect” in [15]; “Dose-dependent effect” in data set [16]; “Tde” in the data set with K562 [17]; 44.4 to 111 nm in data set [19]; 28.6 to 88.9 nm in data set [21]. The Activity in the data set on Plasma [22] was 102 to 109 nm; in the data set filed under Bos taurus [23] it was “Dose-dependent effect”; in data set [24], -14.2 mV; in the data set with Mus musculus [26], “Dose-dependent effect”; in the data set with Plasma [27], 78.5 to 98 nm; in the data set with K562 [28], 73%. In addition, the Activity in the data set on K562 [29] was 3.5%; in the data set on K562 [30] it was 12.4%; in the data set on K562 [32], 1.4%; in data set [33], 43.9 to 176 nm; with K562 [35], 25.5%; in data set [36], 165 nm. The Activity result with Mus musculus [38] was “Dose-dependent effect”; in data set [39], 10.8 to 116 nm; with Plasma [40] it was “Dose-dependent effect”; in the data set filed under Bos taurus [41] it was “Dose-dependent effect”; with Plasma [42] it was 68.6 to 78.4 nm. Further, the MED in the data set with CCRF S-180 [5] came to 0.01 µmol/kg. In addition, the outcome in [6] was inactive. In addition, the inhibition entry in the data set on Mus musculus [9] is “Active”. The Drug uptake result in [14], in data set [25] and in data set [37] was “Tde” in each case. Besides, the Ratio was 2 in the data set with CCRF S-180 [20] and 16.7 in the data set on Mus musculus [31].

For the compound `CC(=O)Oc1ccccc1C(=O)O`, the inhibition entry in the data set on Mus musculus [43] was “Active”.

As usually defined, the IC50 is the concentration that gives 50% inhibition. A low value points to higher potency.
